{
  "source": "patent US8959984B2",
  "about": "“Proteome-wide quantification of small molecule binding to cellular target proteins” (priority 2007, dated 2015)",
  "test_in_all_cases": "binding to VI16742 beads (HeLa lysate, SILAC MS)",
  "key": {"MAP2K3 (IPI00218858)": {"molecular_target": "T1, MAP2K3 (IPI00218858) (Homo sapiens, UniProt P46734)", "T1 construct": "endogenous in cells; host or cells: HeLa S3", "T1 sequence (P46734 1-347)": "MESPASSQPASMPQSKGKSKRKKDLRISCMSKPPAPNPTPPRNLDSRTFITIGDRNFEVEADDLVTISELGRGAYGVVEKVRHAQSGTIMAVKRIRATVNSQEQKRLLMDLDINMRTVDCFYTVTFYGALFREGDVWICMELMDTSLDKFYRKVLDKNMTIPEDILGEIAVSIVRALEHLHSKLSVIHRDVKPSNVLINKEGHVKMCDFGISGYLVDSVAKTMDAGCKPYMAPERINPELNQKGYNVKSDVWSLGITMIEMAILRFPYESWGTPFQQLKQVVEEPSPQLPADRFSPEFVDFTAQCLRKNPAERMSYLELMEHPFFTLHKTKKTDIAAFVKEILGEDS", "outline": "(§1)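 Binders are those proteins retained specifically by an immobilised pyrido[2,3-d]pyrimidine compound, a kinase inhibitor of wide selectivity.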"}, "CSK (IPI00013212)": {"molecular_target": "T2, CSK (IPI00013212) (Homo sapiens, UniProt P41240)", "T2 construct": "endogenous in cells; host or cells: HeLa S3 cell lysate", "T2 sequence (P41240 whole entry)": "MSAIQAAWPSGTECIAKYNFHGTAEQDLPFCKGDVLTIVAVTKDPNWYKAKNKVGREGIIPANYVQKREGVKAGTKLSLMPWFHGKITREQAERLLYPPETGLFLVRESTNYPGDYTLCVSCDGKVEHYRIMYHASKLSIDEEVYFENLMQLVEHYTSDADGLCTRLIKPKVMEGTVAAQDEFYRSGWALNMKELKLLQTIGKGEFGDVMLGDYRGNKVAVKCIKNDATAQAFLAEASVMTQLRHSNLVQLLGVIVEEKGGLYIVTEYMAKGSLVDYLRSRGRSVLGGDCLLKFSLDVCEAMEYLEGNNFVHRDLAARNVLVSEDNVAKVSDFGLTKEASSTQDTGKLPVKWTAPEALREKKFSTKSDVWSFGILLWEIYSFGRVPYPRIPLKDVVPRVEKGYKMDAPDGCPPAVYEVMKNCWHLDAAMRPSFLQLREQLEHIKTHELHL", "outline": "as §1"}, "FN3KRP (IPI00099986)": {"molecular_target": "T3, FN3KRP (IPI00099986) (Homo sapiens, UniProt Q9HA64)", "T3 construct": "endogenous in cells; host or cells: HeLa S3", "T3 sequence (Q9HA64 1-309)": "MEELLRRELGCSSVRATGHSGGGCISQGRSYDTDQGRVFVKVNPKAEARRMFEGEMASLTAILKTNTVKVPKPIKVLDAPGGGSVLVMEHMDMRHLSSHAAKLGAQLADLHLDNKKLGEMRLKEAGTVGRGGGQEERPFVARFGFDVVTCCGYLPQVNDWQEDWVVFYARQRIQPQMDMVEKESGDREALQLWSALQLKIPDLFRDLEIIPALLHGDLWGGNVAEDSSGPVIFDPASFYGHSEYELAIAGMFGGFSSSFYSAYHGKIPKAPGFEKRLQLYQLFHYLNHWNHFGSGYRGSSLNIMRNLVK", "outline": "as §1"}, "MAP2K4 (IPI00789335)": {"molecular_target": "T4, MAP2K4 (IPI00789335) (Homo sapiens, UniProt P45985)", "T4 construct": "endogenous in cells; host or cells: HeLa S3", "T4 sequence (P45985 1-399)": "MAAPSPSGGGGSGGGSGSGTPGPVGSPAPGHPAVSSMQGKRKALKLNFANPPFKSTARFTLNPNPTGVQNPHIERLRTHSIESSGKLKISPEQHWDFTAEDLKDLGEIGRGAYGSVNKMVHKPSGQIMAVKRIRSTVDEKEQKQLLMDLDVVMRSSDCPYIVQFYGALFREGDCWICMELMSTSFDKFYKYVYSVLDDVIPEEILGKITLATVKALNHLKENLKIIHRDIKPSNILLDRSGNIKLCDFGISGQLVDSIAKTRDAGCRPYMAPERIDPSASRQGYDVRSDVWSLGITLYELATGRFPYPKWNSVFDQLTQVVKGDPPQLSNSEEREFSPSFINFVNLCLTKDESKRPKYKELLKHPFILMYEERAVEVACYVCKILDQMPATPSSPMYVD", "outline": "as §1"}, "DAPK2 (IPI00033388)": {"molecular_target": "T5, DAPK2 (IPI00033388) (Homo sapiens, UniProt Q9UIK4)", "T5 construct": "endogenous in cells; host or cells: HeLa S3", "T5 sequence (Q9UIK4 whole entry)": "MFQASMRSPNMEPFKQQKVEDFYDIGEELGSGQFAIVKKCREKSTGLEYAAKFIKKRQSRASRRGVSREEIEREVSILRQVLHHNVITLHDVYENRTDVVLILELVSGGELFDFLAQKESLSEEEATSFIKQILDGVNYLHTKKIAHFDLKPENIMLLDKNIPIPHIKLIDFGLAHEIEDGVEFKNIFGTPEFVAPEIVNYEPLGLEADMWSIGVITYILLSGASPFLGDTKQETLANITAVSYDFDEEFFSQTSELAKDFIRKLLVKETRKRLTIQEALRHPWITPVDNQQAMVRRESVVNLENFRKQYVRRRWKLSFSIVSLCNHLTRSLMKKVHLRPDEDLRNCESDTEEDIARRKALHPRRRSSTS", "outline": "as §1"}, "SART3 (IPI00006025)": {"molecular_target": "T6, SART3 (IPI00006025) (Homo sapiens, UniProt Q15020)", "T6 construct": "endogenous in cells; host or cells: HeLa S3", "T6 sequence (Q15020 1-963)": "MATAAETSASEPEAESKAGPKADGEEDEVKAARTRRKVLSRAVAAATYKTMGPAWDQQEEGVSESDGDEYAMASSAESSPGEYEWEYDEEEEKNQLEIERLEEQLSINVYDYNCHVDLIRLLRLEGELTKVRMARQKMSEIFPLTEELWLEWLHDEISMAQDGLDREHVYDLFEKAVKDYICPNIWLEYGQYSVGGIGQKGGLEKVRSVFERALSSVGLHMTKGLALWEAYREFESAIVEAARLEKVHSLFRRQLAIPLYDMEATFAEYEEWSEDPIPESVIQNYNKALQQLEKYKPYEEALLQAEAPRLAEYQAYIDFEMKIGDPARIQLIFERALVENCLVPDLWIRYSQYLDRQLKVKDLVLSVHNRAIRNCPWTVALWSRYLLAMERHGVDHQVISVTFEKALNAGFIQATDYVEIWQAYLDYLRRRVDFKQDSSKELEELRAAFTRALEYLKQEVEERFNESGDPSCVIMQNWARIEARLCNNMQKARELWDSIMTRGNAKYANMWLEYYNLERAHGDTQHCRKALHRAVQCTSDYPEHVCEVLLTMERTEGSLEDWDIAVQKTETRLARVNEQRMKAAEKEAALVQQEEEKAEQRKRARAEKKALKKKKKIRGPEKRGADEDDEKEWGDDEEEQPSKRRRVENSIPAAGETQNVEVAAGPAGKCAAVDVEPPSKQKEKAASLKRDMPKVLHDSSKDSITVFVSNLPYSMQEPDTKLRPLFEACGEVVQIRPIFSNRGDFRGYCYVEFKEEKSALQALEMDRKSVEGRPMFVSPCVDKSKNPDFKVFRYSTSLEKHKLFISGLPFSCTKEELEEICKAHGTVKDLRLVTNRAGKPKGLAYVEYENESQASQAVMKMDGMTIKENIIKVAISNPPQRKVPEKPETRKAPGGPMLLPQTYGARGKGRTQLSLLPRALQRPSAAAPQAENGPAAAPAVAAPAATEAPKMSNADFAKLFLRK", "outline": "as §1"}, "[1]": {"molecular_target": "T7, PKACb (PRKACB, IPI00376119) (Homo sapiens, UniProt P22694)", "T7 construct": "endogenous in cells; host or cells: HeLa S3", "outline": "as §1"}, "[2]": {"conditions": "control beads vs first incubation"}},
  "data": [
    {"smiles": "CC(C)n1c(=O)ccc2cnc(Nc3ccc(OCCN)cc3)nc21", "note": "[V16742]", "values": [
      {"measurement": "r (5 h/2.5 h INC. TIME)", "setting": "MAP2K3 (IPI00218858); 5 h vs 2.5 h incubation time", "result": 1.60},
      {"measurement": "rAVERAGE (CTRL/1 INC)", "setting": "MAP2K3 (IPI00218858); [2]", "result": 0.05},
      {"measurement": "Ki", "setting": "MAP2K3 (IPI00218858); immobilized VI16742", "result": 150, "unit": "µM"},
      {"measurement": "rAVERAGE (2 INC/1 INC)", "setting": "MAP2K3 (IPI00218858); second vs first incubation", "result": 0.74},
      {"measurement": "r (5 h/2.5 h INC. TIME)", "setting": "CSK (IPI00013212); 5 h vs 2.5 h incubation time", "result": 1.51},
      {"measurement": "rAVERAGE (CTRL/1 INC)", "setting": "CSK (IPI00013212); [2]", "result": 0.02},
      {"measurement": "Ki", "setting": "CSK (IPI00013212); immobilized VI16742", "result": 79.5, "unit": "µM"},
      {"measurement": "rAVERAGE (2 INC/1 INC)", "setting": "CSK (IPI00013212); second vs first incubation", "result": 0.60},
      {"measurement": "r (3 MG/1 MG LYSATE)", "setting": "FN3KRP (IPI00099986); 3 mg vs 1 mg lysate", "result": 2.02},
      {"measurement": "r (5 h/2.5 h INC. TIME)", "setting": "FN3KRP (IPI00099986); 5 h vs 2.5 h incubation time", "result": 0.95},
      {"measurement": "rAVERAGE (CTRL/1 INC)", "setting": "FN3KRP (IPI00099986); [2]", "result": 0.07},
      {"measurement": "Ki", "setting": "FN3KRP (IPI00099986); immobilized VI16742", "result": 117, "unit": "µM"},
      {"measurement": "rAVERAGE (2 INC/1 INC)", "setting": "FN3KRP (IPI00099986); second vs first incubation", "result": 0.69},
      {"measurement": "rAVERAGE (CTRL/1 INC)", "setting": "MAP2K4 (IPI00789335); [2]", "result": 0.06},
      {"measurement": "Ki", "setting": "MAP2K4 (IPI00789335); immobilized VI16742", "result": 127, "unit": "µM"},
      {"measurement": "rAVERAGE (2 INC/1 INC)", "setting": "MAP2K4 (IPI00789335); second vs first incubation", "result": 0.71},
      {"measurement": "rAVERAGE (CTRL/1 INC)", "setting": "DAPK2 (IPI00033388); [2]", "result": 0.11},
      {"measurement": "Ki", "setting": "DAPK2 (IPI00033388); immobilized VI16742", "result": 171, "unit": "µM"},
      {"measurement": "rAVERAGE (2 INC/1 INC)", "setting": "DAPK2 (IPI00033388); second vs first incubation", "result": 0.77},
      {"measurement": "r (3 MG/1 MG LYSATE)", "setting": "SART3 (IPI00006025); 3 mg vs 1 mg lysate", "result": 2.07},
      {"measurement": "r (5 h/2.5 h INC. TIME)", "setting": "SART3 (IPI00006025); 5 h vs 2.5 h incubation time", "result": 0.90},
      {"measurement": "rAVERAGE (CTRL/1 INC)", "setting": "SART3 (IPI00006025); [2]", "result": 0.05},
      {"measurement": "Ki", "setting": "SART3 (IPI00006025); immobilized VI16742", "result": 126, "unit": "µM"},
      {"measurement": "rAVERAGE (2 INC/1 INC)", "setting": "SART3 (IPI00006025); second vs first incubation", "result": 0.71},
      {"measurement": "rAVERAGE (CTRL/1 INC)", "setting": "[1]; [2]", "result": 0.01},
      {"measurement": "Ki", "setting": "[1]; immobilized VI16742", "result": 390, "unit": "µM"},
      {"measurement": "rAVERAGE (2 INC/1 INC)", "setting": "[1]; second vs first incubation", "result": 0.88}
    ]}
  ]
}
